Like-named read-outs stand apart in the source and are kept apart here. One block for each compound: values may come before it.
Tests used:
[1] = format: in vivo, human; conditions: for impact of metformin administration on CLr: control vs baseline; for AUC / CLr: adjusted geometric mean; for AUC: AUC0–24; for CLr: 0–24 h; for mean plasma concentration (Cav): mean ± SEM
[2] = tested on: MATE1/2‐K; experiment: Nonlinear regression of CLr ratio vs pyrimethamine plasma concentration; format: in vivo, human; conditions: regression against pyrimethamine Cav
[3] = biological target: T1, SLC29A1/equilibrative nucleoside transporter 1 (Homo sapiens, UniProt Q99808); experiment: Uptake of m1A in HEK293 cells with and without inhibitors; format: cell-based; conditions: m1A 100 μM, HEK293, 15 min, inhibitor 10 μM
T1 sequence (Q99808 2-456): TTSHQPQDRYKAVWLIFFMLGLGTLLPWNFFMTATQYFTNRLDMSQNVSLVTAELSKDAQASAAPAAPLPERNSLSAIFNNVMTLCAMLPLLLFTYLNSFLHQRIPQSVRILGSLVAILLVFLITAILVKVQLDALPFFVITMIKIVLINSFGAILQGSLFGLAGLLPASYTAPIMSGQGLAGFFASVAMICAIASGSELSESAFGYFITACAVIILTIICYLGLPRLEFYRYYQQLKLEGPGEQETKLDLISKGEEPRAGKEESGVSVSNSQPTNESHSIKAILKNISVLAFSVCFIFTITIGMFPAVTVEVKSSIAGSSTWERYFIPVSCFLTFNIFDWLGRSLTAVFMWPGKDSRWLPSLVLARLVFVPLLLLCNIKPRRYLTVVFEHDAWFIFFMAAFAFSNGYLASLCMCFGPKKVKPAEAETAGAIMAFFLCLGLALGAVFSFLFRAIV

[4] = tested on: MATE2‐K; conditions: read-out: Ki for MATE2‐K‐mediated creatinine uptake; cited from earlier work
[5] = tested on: MATE1; conditions: read-out: Ki for MATE1‐mediated creatinine uptake; cited from earlier work
[6] = biological target: MATE2‐K (Homo sapiens, UniProt Q86VL8); format: cell-based; conditions: In vitro Ki of pyrimethamine, HEK293
Chain of MATE2‐K (Homo sapiens, UniProt Q86VL8) (Q86VL8 1-566 isoform Q86VL8-3): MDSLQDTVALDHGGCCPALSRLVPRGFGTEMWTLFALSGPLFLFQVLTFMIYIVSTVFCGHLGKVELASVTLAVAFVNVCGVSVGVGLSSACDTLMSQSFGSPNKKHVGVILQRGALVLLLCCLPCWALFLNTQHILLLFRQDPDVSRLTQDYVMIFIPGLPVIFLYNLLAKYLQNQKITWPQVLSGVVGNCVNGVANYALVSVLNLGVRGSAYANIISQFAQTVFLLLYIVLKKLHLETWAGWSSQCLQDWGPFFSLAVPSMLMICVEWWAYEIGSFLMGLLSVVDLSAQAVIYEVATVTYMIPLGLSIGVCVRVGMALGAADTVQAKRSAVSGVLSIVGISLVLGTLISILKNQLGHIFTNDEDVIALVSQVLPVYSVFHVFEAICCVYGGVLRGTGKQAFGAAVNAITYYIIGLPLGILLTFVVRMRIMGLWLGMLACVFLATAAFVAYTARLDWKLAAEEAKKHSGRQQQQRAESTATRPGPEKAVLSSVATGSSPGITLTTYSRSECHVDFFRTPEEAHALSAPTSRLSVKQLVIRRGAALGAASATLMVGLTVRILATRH

[7] = biological target: T2, OCT2 (Homo sapiens, UniProt O15244); format: cell-based; conditions: In vitro Ki of pyrimethamine, HEK293
T2 sequence (O15244 1-555): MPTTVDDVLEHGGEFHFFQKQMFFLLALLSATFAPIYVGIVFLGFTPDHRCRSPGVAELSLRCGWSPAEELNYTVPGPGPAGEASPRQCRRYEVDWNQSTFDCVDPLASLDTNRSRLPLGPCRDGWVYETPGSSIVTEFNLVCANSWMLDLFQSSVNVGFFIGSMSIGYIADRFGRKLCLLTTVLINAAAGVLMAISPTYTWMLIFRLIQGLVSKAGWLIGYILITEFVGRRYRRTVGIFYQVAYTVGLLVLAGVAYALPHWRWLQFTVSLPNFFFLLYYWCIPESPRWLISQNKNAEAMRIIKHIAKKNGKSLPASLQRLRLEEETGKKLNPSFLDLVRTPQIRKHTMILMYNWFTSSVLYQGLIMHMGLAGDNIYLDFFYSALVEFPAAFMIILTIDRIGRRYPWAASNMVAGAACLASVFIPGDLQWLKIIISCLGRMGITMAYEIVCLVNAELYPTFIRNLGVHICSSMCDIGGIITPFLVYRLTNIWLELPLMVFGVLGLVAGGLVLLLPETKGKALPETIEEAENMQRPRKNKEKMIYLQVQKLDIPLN

[8] = biological target: T3, MATE1 (Homo sapiens, UniProt Q96FL8); format: cell-based; conditions: In vitro Ki of pyrimethamine, 2 min, HEK293
T3 sequence (Q96FL8 1-570): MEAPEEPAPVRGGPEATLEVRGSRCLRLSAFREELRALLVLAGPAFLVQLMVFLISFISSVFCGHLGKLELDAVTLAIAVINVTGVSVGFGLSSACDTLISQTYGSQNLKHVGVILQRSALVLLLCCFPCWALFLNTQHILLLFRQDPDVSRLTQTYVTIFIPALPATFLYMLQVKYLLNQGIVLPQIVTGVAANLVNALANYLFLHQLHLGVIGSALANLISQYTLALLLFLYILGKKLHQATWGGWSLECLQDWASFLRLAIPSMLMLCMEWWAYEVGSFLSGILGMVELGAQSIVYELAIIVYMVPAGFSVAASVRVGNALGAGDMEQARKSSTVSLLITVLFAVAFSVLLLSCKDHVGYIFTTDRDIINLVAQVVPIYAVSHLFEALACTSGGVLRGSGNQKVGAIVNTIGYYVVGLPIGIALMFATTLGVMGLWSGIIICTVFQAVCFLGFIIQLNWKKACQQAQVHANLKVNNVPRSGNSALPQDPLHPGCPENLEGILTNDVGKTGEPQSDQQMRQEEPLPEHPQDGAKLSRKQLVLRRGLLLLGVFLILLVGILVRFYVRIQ

[9] = biological target: T4, OAT1 (Homo sapiens, UniProt Q4U2R8); experiment: Inhibition of PAH uptake in OAT1-expressing HEK293 cells; format: cell-based
T4 sequence (Q4U2R8 1-563): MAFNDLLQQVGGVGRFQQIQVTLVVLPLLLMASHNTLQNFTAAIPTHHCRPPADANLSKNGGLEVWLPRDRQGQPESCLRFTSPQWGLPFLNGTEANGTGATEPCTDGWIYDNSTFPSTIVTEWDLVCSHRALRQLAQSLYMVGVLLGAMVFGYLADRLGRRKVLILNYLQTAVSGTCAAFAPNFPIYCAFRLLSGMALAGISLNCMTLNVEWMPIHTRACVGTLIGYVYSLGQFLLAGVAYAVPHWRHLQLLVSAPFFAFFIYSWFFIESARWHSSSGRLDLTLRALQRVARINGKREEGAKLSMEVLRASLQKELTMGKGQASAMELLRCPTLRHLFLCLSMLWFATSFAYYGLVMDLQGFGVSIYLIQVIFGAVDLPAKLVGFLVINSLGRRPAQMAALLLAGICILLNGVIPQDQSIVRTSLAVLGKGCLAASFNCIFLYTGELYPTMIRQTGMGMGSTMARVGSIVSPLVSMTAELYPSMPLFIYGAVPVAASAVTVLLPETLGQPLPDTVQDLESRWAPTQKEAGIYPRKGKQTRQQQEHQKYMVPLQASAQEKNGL

[10] = tested on: OAT2; conditions: read-out: half‐maximal inhibitory concentration, OAT2; cited from earlier work
[11] = biological target: T5, OAT3 (Homo sapiens, UniProt Q8TCC7); experiment: Inhibition of ES uptake in OAT3-expressing HEK293 cells; format: cell-based
T5 sequence (Q8TCC7 1-542): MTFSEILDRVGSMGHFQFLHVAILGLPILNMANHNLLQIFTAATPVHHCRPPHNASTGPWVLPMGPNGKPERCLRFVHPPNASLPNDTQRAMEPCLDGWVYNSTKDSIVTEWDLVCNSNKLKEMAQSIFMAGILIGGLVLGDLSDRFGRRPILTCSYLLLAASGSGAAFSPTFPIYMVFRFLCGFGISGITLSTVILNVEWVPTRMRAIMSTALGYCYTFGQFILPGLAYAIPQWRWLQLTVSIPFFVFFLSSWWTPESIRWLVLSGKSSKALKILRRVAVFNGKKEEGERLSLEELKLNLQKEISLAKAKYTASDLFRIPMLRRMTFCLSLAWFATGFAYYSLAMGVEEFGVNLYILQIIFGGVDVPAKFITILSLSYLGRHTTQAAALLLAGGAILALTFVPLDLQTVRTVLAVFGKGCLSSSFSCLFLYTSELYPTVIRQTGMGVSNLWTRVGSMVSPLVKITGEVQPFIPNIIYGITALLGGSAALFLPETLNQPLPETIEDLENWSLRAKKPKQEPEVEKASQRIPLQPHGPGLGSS

[12] = in humans; cited from earlier work
[13] = pyrimethamine 75 mg + metformin
[14] = control phase (metformin 500 mg alone)
[15] = pyrimethamine 10 mg + metformin
[16] = pyrimethamine 25 mg + metformin

impact of metformin administration on CLr [1]: < 7%
f PYR (contribution of tubular secretion to urinary excretion) [2]: 26%
Structure (SMILES): CN1CC(=O)NC1=N [Creatinine, creatinine]

effect of inhibitor on uptake of m1A (ENT1) [3]: minimal
mean plasma concentration (Cav) ([1]; 10 mg single oral dose): 287 ± 24 nM
mean plasma concentration (Cav) ([1]; 25 mg single oral dose): 781 ± 31 nM
mean plasma concentration (Cav) ([1]; 75 mg single oral dose): 2470 ± 180 nM
Ki ([6]; substrate 1‐NMN 10 μM, 2 min): 82.1 ± 18 nM
Ki ([6]; substrate m1A 100 μM, 30 min): 68 ± 15 nM
Ki ([6]; substrate metformin 10 μM, 2 min): 94.1 ± 16 nM
Ki ([7]; OCT2, substrate 1‐NMN 10 μM, 2 min): 41200 ± 9100 nM
Ki ([7]; OCT2, substrate m1A 100 μM, 30 min): 466 ± 43 nM
Ki ([7]; OCT2, substrate metformin 10 μM, 2 min): 37900 ± 5600 nM
Ki ([8]; MATE1, substrate 1‐NMN 10 μM): 125 ± 26 nM
Ki ([8]; MATE1, substrate metformin 10 μM): 154 ± 29 nM
IC50 [9]: 241000 ± 55000 nM
IC50 [11]: 9690 ± 2270 nM
Structure (SMILES): CCc1nc(N)nc(N)c1-c1ccc(Cl)cc1 [pyrimethamine]
Ki [4]: 220 nM
Ki [5]: 170 nM
IC50 [10]: > 100000 nM
elimination half‐life [12]: ca. 100 hours

Second part, the compound before the results:

Structure (SMILES): CN(C)C(=N)N=C(N)N [Metformin, metformin]
decrease in CLr by pyrimethamine ([1]; pyrimethamine 10 mg vs control): 12%
decrease in CLr by pyrimethamine ([1]; pyrimethamine 25 mg vs control): 34%
increase in AUC by pyrimethamine ([1]; pyrimethamine 25 mg vs control): 24%
AUC [1, 13]: 122.9 µM·h
decrease in CLr by pyrimethamine ([1]; pyrimethamine 75 mg vs control): 55%
increase in AUC by pyrimethamine ([1]; pyrimethamine 75 mg vs control): 69%

Structure (SMILES): Cc1ncc(CO)c(C(=O)O)c1O [PDA, pyridoxic acid]
CLr [1, 14]: 545.1 mL/min
AUC [1, 14]: 0.2912 µM·h
CLr [1, 15]: 584.6 mL/min
AUC [1, 15]: 0.2142 µM·h
CLr [1, 16]: 603.1 mL/min
AUC [1, 16]: 0.1772 µM·h
CLr [1, 13]: 423.7 mL/min
AUC [1, 13]: 0.1647 µM·h
decrease in CLr by pyrimethamine ([1]; pyrimethamine 75 mg vs control): 22%

Structure (SMILES): Cn1cnc2c(ncn2[C@@H]2O[C@H](CO)[C@@H](O)[C@H]2O)c1=N [m^1A, N ^1‐methyladenosine]
contribution of the tubular secretion ([1]; assumed from CLr vs creatinine clearance at 75 mg): 41%
CLr relative to creatinine clearance ([1]; control conditions, vs corresponding creatinine clearance): 1.3 fold
impact of metformin administration on CLr [1]: < 7%
